According to PubChem BioAssay (NCI):
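Growth conditions: 96-well plates. Treatment: test compound, 48 hours, 5 concentrations. Analysis: linear interpolation between bracketing concentrations; unreached endpoints set to highest concentration. TGI denotes the concentration required for complete inhibition of growth.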

What was measured:
Assay in all cases: NCI-60 cell line screen, 48 h
[1] = test system: RXF 393 renal
[2] = test system: KM12 colon
[3] = test system: 786-0 renal
[4] = test system: TK-10 renal
[5] = test system: U251 CNS
[6] = test system: SK-OV-3 ovarian
[7] = test system: M14 melanoma
[8] = test system: SW-620 colon
[9] = test system: SK-MEL-2 melanoma
[10] = test system: SNB-78 CNS
[11] = test system: SK-MEL-5 melanoma
[12] = test system: NCI-H226 lung
[13] = test system: MALME-3M melanoma
[14] = test system: HCT-116 colon
[15] = test system: HOP-92 NSCLC
[16] = test system: OVCAR-5 ovarian
[17] = test system: A549 NSCLC
[18] = test system: NCI-H522 lung
[19] = test system: UACC-257 melanoma
[20] = test system: K-562 leukemia
[21] = test system: OVCAR-8 ovarian
[22] = test system: KM20L2 colon
[23] = test system: HT29 colon
[24] = test system: ACHN renal
[25] = test system: CAKI-1 renal
[26] = test system: NCI-H460 lung
[27] = test system: DLD-1 colon
[28] = test system: LXFL 529 NSCLC
[29] = test system: UACC-62 melanoma
[30] = test system: SN12C renal
[31] = test system: IGROV1 ovarian
[32] = test system: OVCAR-3 ovarian
[33] = test system: A498 renal
[34] = test system: DMS 273 small cell lung
[35] = test system: OVCAR-4 ovarian
[36] = test system: MOLT-4 leukemia
[37] = test system: SF-295 CNS
[38] = test system: HCC-2998 colon
[39] = test system: SNB-75 CNS
[40] = test system: SF-539 CNS
[41] = test system: HCT-15 colon
[42] = test system: EKVX NSCLC
[43] = test system: DMS 114 small cell lung
[44] = test system: SF-268 CNS
[45] = test system: HOP-62 NSCLC
[46] = test system: RPMI-8226 leukemia
[47] = test system: NCI-H23 lung
[48] = test system: COLO 205 colon
[49] = test system: SK-MEL-28 melanoma
[50] = test system: LOX IMVI melanoma
[51] = test system: CCRF-CEM leukemia
[52] = test system: XF 498 CNS
[53] = test system: M19-MEL melanoma
[54] = test system: SR leukemia
[55] = test system: UO-31 renal
[56] = test system: SNB-19 CNS
[57] = test system: HL-60(TB) leukemia

`CCCN(CCCC(NC(C)=O)C(=O)NCc1ccccc1)C(=O)N(C)N=O` (configuration not stated) was tested, and the TGI [1] was > 100 µM, the TGI [2] was > 100 µM and the TGI [3] was > 100 µM. For the same molecule, the TGI [4] was > 100 µM, the TGI [5] was > 100 µM and the TGI [6] was > 100 µM. The TGI [7] was > 100 µM, the TGI [8] was > 100 µM and the TGI [9] was > 100 µM. For the same molecule, the TGI [10] was > 100 µM, the TGI [11] was > 100 µM and the TGI [12] was > 100 µM. The TGI [13] was > 100 µM, the TGI [14] was > 100 µM and the TGI [15] was > 100 µM. For the same molecule, the TGI [16] was > 100 µM, the TGI [17] was > 100 µM and the TGI [18] was > 100 µM. The TGI [19] was > 100 µM, the TGI [20] was > 100 µM and the TGI [21] was > 100 µM. The TGI [22] was > 100 µM, the TGI [23] was > 100 µM and the TGI [24] was > 100 µM. For the same molecule, the TGI [25] was > 100 µM, the TGI [26] was > 100 µM and the TGI [27] was > 100 µM. For the same molecule, the TGI [28] was > 100 µM, the TGI [29] was > 100 µM and the TGI [30] was > 100 µM. The TGI [31] was > 100 µM, the TGI [32] was > 100 µM and the TGI [33] was > 100 µM. For the same molecule, the TGI [34] was > 100 µM, the TGI [35] was > 100 µM and the TGI [36] was > 100 µM. For the same molecule, the TGI [37] was > 100 µM, the TGI [38] was > 100 µM and the TGI [39] was > 100 µM. The TGI [40] was > 100 µM, the TGI [41] was > 100 µM and the TGI [42] was > 100 µM. The TGI [43] was > 100 µM, the TGI [44] was > 100 µM and the TGI [45] was > 100 µM. The TGI [46] was > 100 µM, the TGI [47] was > 100 µM and the TGI [48] was > 100 µM. For the same molecule, the TGI [49] was > 100 µM, the TGI [50] was > 100 µM and the TGI [51] was > 100 µM. The TGI [52] was > 100 µM and the TGI [53] was > 100 µM.
For `COC1(OC)CCC2(C)OC(c3ccccc3)C1O2` (configuration not stated), the TGI [1] was > 100 µM, the TGI [2] was > 100 µM and the TGI [3] was > 100 µM. For the same molecule, the TGI [4] was > 100 µM, the TGI [5] was > 100 µM and the TGI [6] was > 100 µM. The TGI [7] was > 100 µM, the TGI [8] was > 100 µM and the TGI [9] was > 100 µM. For the same molecule, the TGI [12] was > 100 µM, the TGI [13] was > 100 µM and the TGI [14] was > 100 µM. The TGI [16] was > 100 µM, the TGI [17] was > 100 µM and the TGI [18] was > 100 µM. For the same molecule, the TGI [19] was > 100 µM, the TGI [20] was > 100 µM and the TGI [21] was > 100 µM. The TGI [22] was > 100 µM, the TGI [23] was > 100 µM and the TGI [24] was > 100 µM. For the same molecule, the TGI [25] was > 100 µM, the TGI [26] was > 100 µM and the TGI [54] was > 100 µM. The TGI [55] was > 100 µM, the TGI [27] was > 100 µM and the TGI [28] was > 100 µM. The TGI [29] was > 100 µM, the TGI [30] was > 100 µM and the TGI [31] was > 100 µM. The TGI [32] was > 100 µM, the TGI [34] was > 100 µM and the TGI [35] was > 100 µM. For the same molecule, the TGI [36] was > 100 µM, the TGI [37] was > 100 µM and the TGI [38] was > 100 µM. The TGI [39] was > 100 µM, the TGI [56] was > 100 µM and the TGI [40] was > 100 µM. For the same molecule, the TGI [41] was > 100 µM, the TGI [42] was > 100 µM and the TGI [57] was > 100 µM. The TGI [43] was > 100 µM, the TGI [44] was > 100 µM and the TGI [45] was > 100 µM. For the same molecule, the TGI [46] was > 100 µM, the TGI [47] was > 100 µM and the TGI [48] was > 100 µM. The TGI [49] was > 100 µM, the TGI [50] was > 100 µM and the TGI [51] was > 100 µM. The TGI [52] was > 100 µM.
With `O=c1[nH]c(-c2ccccc2)nc2cc([N+](=O)[O-])c(/C(Cl)=C/c3ccccc3)cc12` the TGI [1] was 72.7 µM, the TGI [2] was > 100 µM and the TGI [3] was > 100 µM. For the same molecule, the TGI [4] was 76.6 µM, the TGI [5] was > 100 µM and the TGI [6] was 72.2 µM. The TGI [8] was > 100 µM, the TGI [9] was 71.8 µM and the TGI [10] was > 100 µM. For the same molecule, the TGI [11] was 74 µM, the TGI [12] was > 100 µM and the TGI [13] was > 100 µM. The TGI [14] was > 100 µM, the TGI [15] was 35.6 µM and the TGI [16] was > 100 µM. The TGI [17] was > 100 µM, the TGI [18] was 81.7 µM and the TGI [19] was 48.3 µM. The TGI [20] was > 100 µM, the TGI [21] was 45.4 µM and the TGI [22] was > 100 µM. The TGI [24] was > 100 µM, the TGI [25] was > 100 µM and the TGI [54] was > 100 µM. The TGI [55] was > 100 µM, the TGI [28] was 78.4 µM and the TGI [29] was 42.6 µM. For the same molecule, the TGI [30] was > 100 µM, the TGI [31] was > 100 µM and the TGI [32] was > 100 µM. The TGI [34] was > 100 µM, the TGI [35] was 49.5 µM and the TGI [36] was > 100 µM. The TGI [37] was 53.5 µM, the TGI [38] was > 100 µM and the TGI [39] was 53.1 µM. The TGI [56] was > 100 µM, the TGI [40] was > 100 µM and the TGI [41] was > 100 µM. For the same molecule, the TGI [42] was > 100 µM, the TGI [43] was > 100 µM and the TGI [44] was > 100 µM. The TGI [46] was 88.7 µM, the TGI [47] was > 100 µM and the TGI [48] was 79.9 µM. The TGI [49] was > 100 µM and the TGI [53] was > 100 µM.
